These results are taken from patent US9120770B2, “Substituted pyridine and pyrazine compounds as PDE4 inhibitors” (DART NEUROSCIENCE (CAYMAN) LTD., priority 2013, dated 2015).

Sequence of PDE4D3 (Q08499 1-673 isoform Q08499-2): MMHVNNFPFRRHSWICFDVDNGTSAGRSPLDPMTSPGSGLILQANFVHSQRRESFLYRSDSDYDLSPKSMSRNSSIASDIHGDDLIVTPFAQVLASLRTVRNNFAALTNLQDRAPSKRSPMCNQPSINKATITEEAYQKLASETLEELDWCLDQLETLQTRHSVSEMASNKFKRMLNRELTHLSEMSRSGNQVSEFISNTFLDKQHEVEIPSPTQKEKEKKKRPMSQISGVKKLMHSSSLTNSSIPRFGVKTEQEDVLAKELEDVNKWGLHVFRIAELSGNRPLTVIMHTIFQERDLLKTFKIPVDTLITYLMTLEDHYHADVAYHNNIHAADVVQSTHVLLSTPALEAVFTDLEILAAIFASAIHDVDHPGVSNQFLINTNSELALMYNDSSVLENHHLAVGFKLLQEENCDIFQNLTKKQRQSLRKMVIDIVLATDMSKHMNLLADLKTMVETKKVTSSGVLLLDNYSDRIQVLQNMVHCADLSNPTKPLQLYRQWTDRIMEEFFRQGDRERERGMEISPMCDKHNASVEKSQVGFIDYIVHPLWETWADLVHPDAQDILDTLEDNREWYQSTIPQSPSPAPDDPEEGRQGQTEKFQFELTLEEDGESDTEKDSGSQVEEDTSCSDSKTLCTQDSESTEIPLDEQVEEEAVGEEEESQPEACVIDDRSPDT

The assay concerns the target PDE4D3 (Homo sapiens, UniProt Q08499).
The compound `COc1ncc(Cn2cc(C)cn2)cc1-c1cccc(Cl)c1` [Example 179, 3-(3-Chlorophenyl)-2-methoxy-5-[(4-methyl-1H-pyrazol-1-yl)methyl]pyridine] had an EC50 of 100 to 1000 nM.

Consider `COc1ncc(Cn2cncn2)cc1-c1cccc(Cl)c1` [Example 134, 3-(3-Chlorophenyl)-2-methoxy-5-(1H-1,2,4-triazol-1-ylmethyl)pyridine], for which the concentration for a half-maximal effect (EC50) is < 100 nM.

Turning to `FC(F)Oc1ncc(Cc2cnccn2)cc1-c1cccc(Cl)c1` [Example 110, 2-{[5-(3-Chlorophenyl)-6-(difluoromethoxy)pyridin-3-yl]methyl}pyrazine], the EC50 is < 100 nM.

With `NCc1cncc(Cc2cnc(OC(F)F)c(-c3cccc(Cl)c3)c2)c1` [Example 71, (5-{[5-(3-Chlorophenyl)-6-(difluoromethoxy)pyridin-3-yl]methyl}pyridin-3-yl)methanamine], the EC50 is < 100 nM.

Compound `COc1ncc(Cc2ccc(F)cc2)cc1-c1cccc(Cl)c1` [Example 88, 3-(3-Chlorophenyl)-5-[(4-fluorophenyl)methyl]-2-methoxypyridine] registered an EC50 of 100 to 1000 nM.

On to `COc1ncc(Cn2ccc(CO)n2)cc1-c1cccc(OC(F)F)c1` [Example 275, [1-({5-[3-(Difluoromethoxy)phenyl]-6-methoxypyridin-3-yl}methyl)-1H-pyrazol-3-yl]methanol], for which the half-maximal effective concentration (EC50) is < 100 nM.

For `FC(F)Oc1ncc(Cc2cncs2)cc1-c1cccc(Cl)c1` [Example 68, 3-(3-Chlorophenyl)-2-(difluoromethoxy)-5-(1,3-thiazol-5-ylmethyl)pyridine], the concentration giving a half-maximal response (EC50) was < 100 nM.

`CCOc1ncc(Cn2ncnc2C(F)(F)F)nc1-c1cccc(OC(F)F)c1` [Example 188, 3-[3-(Difluoromethoxy)phenyl]-2-ethoxy-5-{[5-(trifluoromethyl)-1H-1,2,4-triazol-1-yl]methyl}pyrazine] came in with an EC50 of 100 to 1000 nM.

`COc1ncc(Cn2cnnc2C)cc1-c1cccc(Cl)c1` [Example 138, 3-(3-Chlorophenyl)-2-methoxy-5-[(3-methyl-4H-1,2,4-triazol-4-yl)methyl]pyridine] displayed an EC50 of 1000 to 10000 nM.

For the compound `FC(F)Oc1ncc(Cn2cnnn2)cc1-c1cccc(Cl)c1` [Example 161, 3-(3-Chlorophenyl)-2-(difluoromethoxy)-5-(1H-1,2,3,4-tetrazol-1-ylmethyl)pyridine], the 50% effective concentration (EC50) was 100 to 1000 nM.

Take `COc1ncc(Cc2cnc(C(C)(C)O)nc2)cc1-c1cccc(OC(F)F)c1` [Example 48, 2-[5-({5-[3-(Difluoromethoxy)phenyl]-6-methoxypyridin-3-yl}methyl)pyrimidin-2-yl]propan-2-ol]: the EC50 is < 100 nM.

In the case of `CC(C)Oc1ccc(Cc2cnc(OC(F)F)c(-c3cccc(Cl)c3)c2)cn1` [Example 50, 3-(3-Chlorophenyl)-2-(difluoromethoxy)-5-{[6-(propan-2-yloxy)pyridin-3-yl]methyl}pyridine], the EC50 lay in the range of 1000 to 10000 nM.

In turn, `COc1nc(C)c(Cn2cncn2)cc1-c1cccc(Cl)c1` [Example 112, 3-(3-Chlorophenyl)-2-methoxy-6-methyl-5-(1H-1,2,4-triazol-1-ylmethyl)pyridine] came in with an EC50 of 100 to 1000 nM.

The compound `COc1ncc(Cn2cnc(C3CC3)n2)cc1-c1cccc(Cl)c1` [Example 147, 3-(3-Chlorophenyl)-5-[(3-Cyclopropyl-1H-1,2,4-triazol-1-yl)methyl]-2-methoxypyridine] gave an EC50 of 100 to 1000 nM.

On to `CCOc1ncc(Cc2cnc(N)nc2)nc1-c1cccc(Cl)c1` [Example 105, 5-{[6-(3-Chlorophenyl)-5-ethoxypyrazin-2-yl]methyl}pyrimidin-2-amine], for which the EC50 was < 100 nM.

For `COc1ncc(Cc2cnc(NC(C)=O)nc2)cc1-c1cccc(Cl)c1` [Example 44, N-(5-[{5-(3-Chlorophenyl)-6-methoxypyridin-3-yl]methyl}pyrimidin-2-yl)acetamide], the 50% effective concentration (EC50) was 100 to 1000 nM.

As to `COc1ncc(Cc2c(C)noc2C)nc1-c1cccc(Cl)c1` [Example 98, 3-(3-Chlorophenyl)-5-[(dimethyl-1,2-oxazol-4-yl)methyl]-2-methoxypyrazine], the EC50 was 1000 to 10000 nM.

`CCOc1ncn(Cc2cnc(OC(F)F)c(-c3cccc(Cl)c3)c2)n1` [Example 216, 3-(3-Chlorophenyl)-2-(difluoromethoxy)-5-[(3-ethoxy-1H-1,2,4-triazol-1-yl)methyl]pyridine] had a half-maximal effective concentration (EC50) of 100 to 1000 nM.

Take `Nc1ncn(Cc2cnc(OC(F)F)c(-c3ccnc(OC(F)F)c3)c2)n1` [Example 231, 1-{[6-(Difluoromethoxy)-5-[2-(difluoromethoxy)pyridin-4-yl]pyridin-3-yl]methyl}-1H-1,2,4-triazol-3-amine]: the EC50 fell in the range of 100 to 1000 nM.

Take `CC(C)Oc1ncc(Cc2cnc(N)nc2)cc1-c1cccc(Cl)c1` [Example 41, 5-{[5-(3-Chlorophenyl)-6-(propan-2-yloxy)pyridin-3-yl]methyl}pyrimidin-2-amine]: the EC50 was in the range of 100 to 1000 nM.

Consider `COc1ncc(Cn2cnc(N)n2)cc1-c1cccc(F)c1` [Example 220, 1-{[5-(3-Fluorophenyl)-6-methoxypyridin-3-yl]methyl}-1H-1,2,4-triazol-3-amine], for which the EC50 is 100 to 1000 nM.

`COc1ncc(Cn2cnc(C(F)(F)F)c2)cc1-c1cccc(Cl)c1` [Example 149, 3-(3-Chlorophenyl)-2-methoxy-5-{[4-(trifluoromethyl)-1H-imidazol-1-yl]methyl}pyridine] had a 50% effective concentration (EC50) of 1000 to 10000 nM.

For the compound `COc1ncc(Cn2cnc(CF)n2)cc1-c1ccnc(OC(F)F)c1` [Example 256, 3-[2-(Difluoromethoxy)pyridin-4-yl]-5-{[3-(fluoromethyl)-1H-1,2,4-triazol-1-yl]methyl}-2-methoxypyridine], the concentration giving a half-maximal response (EC50) is < 100 nM.

Take `NC(=O)Cc1ccc(Cc2cnc(OC(F)F)c(-c3cccc(Cl)c3)c2)cc1` [Example 246, 2-(4-{[5-(3-Chlorophenyl)-6-(difluoromethoxy)pyridin-3-yl]methyl}phenyl)acetamide]: the EC50 was < 100 nM.

In turn, `COc1ncc(Cn2cncn2)cc1-c1cccc(F)c1` [Example 129, 3-(3-Fluorophenyl)-2-methoxy-5-(1H-1,2,4-triazol-1-ylmethyl)pyridine] came in with an EC50 of 100 to 1000 nM.

For `COc1ncc(C(C)(O)c2ccc(F)cc2)cc1-c1cccc(Cl)c1` (stereo not drawn) [Example 15, 1-[5-(3-Chlorophenyl)-6-methoxypyridin-3-yl]-1-(4-fluorophenyl)ethan-1-ol], the concentration for a half-maximal effect (EC50) was 1000 to 10000 nM.

Take `COc1ccc(Cc2cnc(OC)c(-c3cccc(Cl)c3)c2)cn1` [Example 32, 3-(3-Chlorophenyl)-2-methoxy-5-[(6-methoxypyridin-3-yl)methyl]pyridine]: the EC50 was < 100 nM.

`CCOc1ncc(Cn2cc(CO)nn2)nc1-c1cccc(OC(F)F)c1` [Example 265, [1-({6-[3-(Difluoromethoxy)phenyl]-5-ethoxypyrazin-2-yl}methyl)-1H-1,2,3-triazol-4-yl]methanol]: the EC50 fell in the range of 100 to 1000 nM.

Take `Cc1ncc(Cc2cnc(OC(F)F)c(-c3cccc(Cl)c3)c2)s1` [Example 73, 3-(3-Chlorophenyl)-2-(difluoromethoxy)-5-[(2-methyl-1,3-thiazol-5-yl)methyl]pyridine]: the EC50 is < 100 nM.

As to `COc1ncc(Cn2cnc(C(F)F)n2)cc1-c1ccnc(OC(F)F)c1` [Example 261, 3-[2-(Difluoromethoxy)pyridin-4-yl]-5-{[3-(difluoromethyl)-1H-1,2,4-triazol-1-yl]methyl}-2-methoxypyridine], the EC50 is < 100 nM.
